Reference: PMC9395488, “First-in-human study of IM156, a novel potent biguanide oxidative phosphorylation (OXPHOS) inhibitor, in patients with advanced solid tumors” (Investigational New Drugs, 2022)

Tested on: patients with advanced solid tumors
Assay: First-in-human phase 1 dose-escalation study: safety, DLTs, adverse events
Assay type: in vivo
From the text: This multicenter first-in-human dose-escalation phase 1 study (clinicaltrials.gov identifier: NCT03272256) was designed to determine the MTD or RP2D and to evaluate the safety and tolerability of IM156. Secondary endpoints included PK characteristics, efficacy assessment (objective response rate [ORR], disease control rate [DCR], duration of response [DoR] and progression-free survival [PFS]). Furthermore, exploratory objectives included identification and profiling of IM156 metabolites, evaluations of exploratory PD markers of IM156, and evaluations of any potential relationship between putative biomarkers and safety/efficacy parameters of IM156. The study was conducted in accordance with Good Clinical Practice, the International Council for Harmonisation, and guidelines governing clinical study conduct and the ethical principles originating from the Declaration of Helsinki. The study was approved by each Institutional Review Board and patients provided written informed consent. Patients were enrolled at three sites in South Korea.
The initial dose and schedule of IM156 was chosen based on animal toxicology studies. […] IM156 was administered in the fasted state, with no food for at least 2 h before and 1 h after dosing.
Three DLT-evaluable patients were enrolled at each dose level. If there were no DLTs or other prohibitive adverse events (AEs), the Safety Committee was allowed to recommend escalation to the next highest dose level. If 1 DLT occurred in the first 3 DLT-evaluable patients, enrollment in that cohort was expanded to an additional 3 DLT-evaluable patients; if ≥ 2 DLTs were reported in a cohort, that dose was considered above the MTD.
Safety was assessed through vital signs, weight, laboratory assessments, physical examinations, electrocardiogram, and reporting of AEs as graded by the National Cancer Institute’s Common Terminology Criteria for Adverse Events v4.03 (NCI-CTCAE).
DLTs were defined as the following AEs if they were attributed as related to IM156: asymptomatic grade 4 neutropenia lasting for ≥ 5 days; febrile neutropenia, regardless of grade; grade 4 thrombocytopenia or grade 3 thrombocytopenia with bleeding; any grade ≥ 3 non-hematologic AE (except grade 3 hypertension and grade 3 nausea, vomiting or diarrhea for which proper measures for prevention and treatment were not implemented, and alopecia); blood lactate levels > 5 mmol; grade ≥ 2 AE prohibiting dosing of IM156 for ≥ 21 continuous days except for alterations in serum calcium or phosphorus levels. The safety analysis includes all patients who received at least one dose of study drug.
The safety population was defined as all patients who received at least one dose of IM156. The PK population was not defined in the protocol but included all patients with sufficient PK data to perform adequate PK modeling. The efficacy population included all patients who underwent at least one tumor imaging assessment while receiving IM156. Safety was assessed using descriptive statistics (e.g., DLTs, AEs, laboratory tests, physical examination, 12-lead ECG). The incidence and number of events were reported for the DLTs observed in Cycle 1 per dose group. […] Adverse events and TRAEs were standardized with the System Organ Class and the Preferred Term using the Medical Dictionary for Regulatory Activities v23.0. In addition, TEAEs, serious adverse events (SAEs), TEAE severity, and TEAEs leading to withdrawal were presented by dose group. Efficacy data were to be presented by Waterfall and Swim Lane plots. Time to event endpoints (e.g., DoR, PFS) were determined using Kaplan–Meier estimations with the median value for each endpoint summarized.

[1] = DL5 1200 mg orally every other day (n=3)

In the case of `NC(=Nc1ccc(OC(F)(F)F)cc1)N=C(N)N1CCCC1` [IM156], the “TEAE Dry skin grade 1” value [1] is reported as 0, the “TEAE Dry skin grade 2” value [1] is reported as 0 and the “TEAE Dry skin grade 3” value [1] is reported as 0. For the same molecule, the “TEAE Dry skin grade 4” value [1] was 0, the “TEAE Flank pain grade 1” value [1] was 0 and the “TEAE Flank pain grade 2” value [1] was 0. For the same molecule, the “TEAE Flank pain grade 3” value [1] was 0, the “TEAE Flank pain grade 4” value [1] was 0 and the “TEAE Hypertension grade 1” value [1] was 0. The “TEAE Hypertension grade 2” value [1] was 0, the “TEAE Hypertension grade 3” value [1] was 0 and the “TEAE Hypertension grade 4” value [1] was 0. For the same molecule, the “TEAE Hypotension grade 1” value [1] was 0, the “TEAE Hypotension grade 2” value [1] was 1 and the “TEAE Hypotension grade 3” value [1] was 0. The “TEAE Hypotension grade 4” value [1] was 0, the “TEAE Insomnia grade 1” value [1] was 0 and the “TEAE Insomnia grade 2” value [1] was 0. The “TEAE Insomnia grade 3” value [1] was 0, the “TEAE Insomnia grade 4” value [1] was 0 and the “TEAE Pain in extremity grade 1” value [1] was 0. The “TEAE Pain in extremity grade 2” value [1] was 0, the “TEAE Pain in extremity grade 3” value [1] was 0 and the “TEAE Pain in extremity grade 4” value [1] was 0. For the same molecule, the “TEAE Pruritus grade 1” value [1] was 0, the “TEAE Pruritus grade 2” value [1] was 0 and the “TEAE Pruritus grade 3” value [1] was 0. For the same molecule, the “TEAE Pruritus grade 4” value [1] was 0, the “TEAE Psychiatric disorders grade 1” value [1] was 0 and the “TEAE Psychiatric disorders grade 2” value [1] was 0. The “TEAE Psychiatric disorders grade 3” value [1] was 0, the “TEAE Psychiatric disorders grade 4” value [1] was 0 and the “TEAE Purpura grade 1” value [1] was 0. For the same molecule, the “TEAE Purpura grade 2” value [1] was 0, the “TEAE Purpura grade 3” value [1] was 0 and the “TEAE Purpura grade 4” value [1] was 0. For the same molecule, the “TEAE Urinary retention grade 1” value [1] was 0, the “TEAE Urinary retention grade 2” value [1] was 0 and the “TEAE Urinary retention grade 3” value [1] was 0. The “TEAE Urinary retention grade 4” value [1] was 0, the “TEAE Urinary tract disorder grade 1” value [1] was 0 and the “TEAE Urinary tract disorder grade 2” value [1] was 0. For the same molecule, the “TEAE Urinary tract disorder grade 3” value [1] was 0, the “TEAE Urinary tract disorder grade 4” value [1] was 0 and the “TEAE Abdominal discomfort, grade 1” value (DL6 800 mg QD (n=3)) was 1. For the same molecule, the “TEAE Alanine aminotransferase increased, grade 1” value (DL6 800 mg QD (n=3)) was 1, the “TEAE Aspartate aminotransferase increased, grade 1” value (DL6 800 mg QD (n=3)) was 1 and the “TEAE Blood lactic acid increased, grade 1” value (DL6 800 mg QD (n=3)) was 1. For the same molecule, the “TEAE Constipation, grade 1” value (DL6 800 mg QD (n=3)) was 2, the “TEAE Decreased appetite, grade 1” value (DL6 800 mg QD (n=3)) was 1 and the “TEAE Diarrhoea, grade 1” value (DL6 800 mg QD (n=3)) was 3. The “TEAE Fatigue, grade 1” value (DL6 800 mg QD (n=3)) was 1, the “TEAE Gastrointestinal pain, grade 1” value (DL6 800 mg QD (n=3)) was 1 and the “TEAE Nausea, grade 1” value (DL6 800 mg QD (n=3)) was 2. The “TEAE Toothache, grade 1” value (DL6 800 mg QD (n=3)) was 1, the “TEAE Vomiting, grade 1” value (DL6 800 mg QD (n=3)) was 1 and the “TRAE Abdominal Pain, > G3 (patients)” value (DL6 800 mg QD, N = 3) was 0. For the same molecule, the “TRAE Abdominal Pain, All grades (patients)” value (DL6 800 mg QD, N = 3) was 0, the “TRAE Blood Lactic Acid increased, > G3 (patients)” value (DL6 800 mg QD, N = 3) was 0 and the “TRAE Blood Lactic Acid increased, All grades (patients)” value (DL6 800 mg QD, N = 3) was 1. The “TRAE Constipation, > G3 (patients)” value (DL6 800 mg QD, N = 3) was 0, the “TRAE Constipation, All grades (patients)” value (DL6 800 mg QD, N = 3) was 1 and the “TRAE Decreased appetite, > G3 (patients)” value (DL6 800 mg QD, N = 3) was 0. The “TRAE Decreased appetite, All grades (patients)” value (DL6 800 mg QD, N = 3) was 0, the “TRAE Diarrhoea, > G3 (patients)” value (DL6 800 mg QD, N = 3) was 0 and the “TRAE Diarrhoea, All grades (patients)” value (DL6 800 mg QD, N = 3) was 3. The “TRAE Fatigue, > G3 (patients)” value (DL6 800 mg QD, N = 3) was 0, the “TRAE Fatigue, All grades (patients)” value (DL6 800 mg QD, N = 3) was 0 and the “TRAE Insomnia, > G3 (patients)” value (DL6 800 mg QD, N = 3) was 0. For the same molecule, the “TRAE Insomnia, All grades (patients)” value (DL6 800 mg QD, N = 3) was 0, the “TRAE Nausea, > G3 (patients)” value (DL6 800 mg QD, N = 3) was 0 and the “TRAE Nausea, All grades (patients)” value (DL6 800 mg QD, N = 3) was 2. The “TRAE Vomiting, > G3 (patients)” value (DL6 800 mg QD, N = 3) was 0, the “TRAE Vomiting, All grades (patients)” value (DL6 800 mg QD, N = 3) was 1 and the “TEAE Adrenal insufficiency grade 1” value (DL6 800 mg orally daily (n=3)) was 0. The “TEAE Adrenal insufficiency grade 2” value (DL6 800 mg orally daily (n=3)) was 0, the “TEAE Adrenal insufficiency grade 3” value (DL6 800 mg orally daily (n=3)) was 0 and the “TEAE Adrenal insufficiency grade 4” value (DL6 800 mg orally daily (n=3)) was 0. The “TEAE Anaemia grade 1” value (DL6 800 mg orally daily (n=3)) was 0, the “TEAE Anaemia grade 2” value (DL6 800 mg orally daily (n=3)) was 0 and the “TEAE Anaemia grade 3” value (DL6 800 mg orally daily (n=3)) was 0. For the same molecule, the “TEAE Anaemia grade 4” value (DL6 800 mg orally daily (n=3)) was 0, the “TEAE Appendicitis perforated grade 1” value (DL6 800 mg orally daily (n=3)) was 0 and the “TEAE Appendicitis perforated grade 2” value (DL6 800 mg orally daily (n=3)) was 0. For the same molecule, the “TEAE Appendicitis perforated grade 3” value (DL6 800 mg orally daily (n=3)) was 0, the “TEAE Appendicitis perforated grade 4” value (DL6 800 mg orally daily (n=3)) was 0 and the “TEAE Back pain grade 1” value (DL6 800 mg orally daily (n=3)) was 0. For the same molecule, the “TEAE Back pain grade 2” value (DL6 800 mg orally daily (n=3)) was 0, the “TEAE Back pain grade 3” value (DL6 800 mg orally daily (n=3)) was 0 and the “TEAE Back pain grade 4” value (DL6 800 mg orally daily (n=3)) was 0. The “TEAE Cystitis grade 1” value (DL6 800 mg orally daily (n=3)) was 0, the “TEAE Cystitis grade 2” value (DL6 800 mg orally daily (n=3)) was 0 and the “TEAE Cystitis grade 3” value (DL6 800 mg orally daily (n=3)) was 0. The “TEAE Cystitis grade 4” value (DL6 800 mg orally daily (n=3)) was 0, the “TEAE Dry skin grade 1” value (DL6 800 mg orally daily (n=3)) was 0 and the “TEAE Dry skin grade 2” value (DL6 800 mg orally daily (n=3)) was 0. The “TEAE Dry skin grade 3” value (DL6 800 mg orally daily (n=3)) was 0, the “TEAE Dry skin grade 4” value (DL6 800 mg orally daily (n=3)) was 0 and the “TEAE Flank pain grade 1” value (DL6 800 mg orally daily (n=3)) was 0. The “TEAE Flank pain grade 2” value (DL6 800 mg orally daily (n=3)) was 0, the “TEAE Flank pain grade 3” value (DL6 800 mg orally daily (n=3)) was 0 and the “TEAE Flank pain grade 4” value (DL6 800 mg orally daily (n=3)) was 0. For the same molecule, the “TEAE Hypertension grade 1” value (DL6 800 mg orally daily (n=3)) was 0, the “TEAE Hypertension grade 2” value (DL6 800 mg orally daily (n=3)) was 0 and the “TEAE Hypertension grade 3” value (DL6 800 mg orally daily (n=3)) was 0. The “TEAE Hypertension grade 4” value (DL6 800 mg orally daily (n=3)) was 0, the “TEAE Hypotension grade 1” value (DL6 800 mg orally daily (n=3)) was 0 and the “TEAE Hypotension grade 2” value (DL6 800 mg orally daily (n=3)) was 0. For the same molecule, the “TEAE Hypotension grade 3” value (DL6 800 mg orally daily (n=3)) was 0, the “TEAE Hypotension grade 4” value (DL6 800 mg orally daily (n=3)) was 0 and the “TEAE Insomnia grade 1” value (DL6 800 mg orally daily (n=3)) was 1. For the same molecule, the “TEAE Insomnia grade 2” value (DL6 800 mg orally daily (n=3)) was 0, the “TEAE Insomnia grade 3” value (DL6 800 mg orally daily (n=3)) was 0 and the “TEAE Insomnia grade 4” value (DL6 800 mg orally daily (n=3)) was 0. For the same molecule, the “TEAE Pain in extremity grade 1” value (DL6 800 mg orally daily (n=3)) was 0, the “TEAE Pain in extremity grade 2” value (DL6 800 mg orally daily (n=3)) was 0 and the “TEAE Pain in extremity grade 3” value (DL6 800 mg orally daily (n=3)) was 0.
